Key:
Assay in all cases: relative viability (nuclei count vs DMSO), 5 days (fraction); higher = more cells survive
XMD13-2 + Bortezomib = compound: C1CC1C(=O)NC2=NNC3=C2C=CC(=C3)C4=CC(=CC=C4)C(=O)NC5CC5 [XMD13-2] + CC(C)C[C@H](NC(=O)[C@H](Cc1ccccc1)NC(=O)c1cnccn1)B(O)O [Bortezomib] (partner 0.002 µM)
How it was run: (§1)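 Each reported value is a median over duplicate plates. It expresses relative viability: treated-well nuclei count divided by vehicle-well nuclei count. Lung cancer cell lines in 1536-well plates were dosed by pin tool a day after seeding, alone with one drug or with a fixed anchor-drug dose plus five library-drug doses (not always all listed) in √10 steps, and nuclei were counted after 5 days.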

ALW-II-49-7 + Dasatinib = compound: Cc1ccc(C(=O)Nc2cccc(C(F)(F)F)c2)cc1Nc1cncc(C(N)=O)c1 [ALW-II-49-7] + Cc1nc(Nc2ncc(C(=O)Nc3c(C)cccc3Cl)s2)cc(N2CCN(CCO)CC2)n1 [Dasatinib] (partner 0.075 µM)
How it was run: as §1

[1] = compound: Cc1ccc(C(=O)Nc2cccc(C(F)(F)F)c2)cc1Nc1cncc(C(N)=O)c1 [ALW-II-49-7] + CC(=O)c1c(C)c2cnc(Nc3ccc(N4CCNCC4)cn3)nc2n(C2CCCC2)c1=O [Palbociclib] (partner 0.5 µM)
How it was run: as §1

XMD13-2 + AZD7762 = compound: C1CC1C(=O)NC2=NNC3=C2C=CC(=C3)C4=CC(=CC=C4)C(=O)NC5CC5 [XMD13-2] + NC(=O)Nc1cc(-c2cccc(F)c2)sc1C(=O)N[C@H]1CCCNC1 [AZD7762] (partner 0.2 µM)
How it was run: as §1

| Cell Line | relative viability (XMD13-2 + Bortezomib; first compound 0.05 µM) | relative viability (XMD13-2 + Bortezomib; first compound 0.1581 µM) | relative viability (XMD13-2 + Bortezomib; first compound 0.5 µM) | relative viability (XMD13-2 + Bortezomib; first compound 1.581 µM) | relative viability (XMD13-2 + Bortezomib; first compound 5 µM) | relative viability (ALW-II-49-7 + Dasatinib; first compound 0.08 µM) | relative viability (ALW-II-49-7 + Dasatinib; first compound 0.8 µM) | relative viability (ALW-II-49-7 + Dasatinib; first compound 2.53 µM) | relative viability (ALW-II-49-7 + Dasatinib; first compound 8 µM) | relative viability ([1]; first compound 0.08 µM) | relative viability ([1]; first compound 0.253 µM) | relative viability ([1]; first compound 0.8 µM) | relative viability ([1]; first compound 2.53 µM) | relative viability ([1]; first compound 8 µM) | relative viability (XMD13-2 + AZD7762; first compound 0.05 µM) | relative viability (XMD13-2 + AZD7762; first compound 0.1581 µM) | relative viability (XMD13-2 + AZD7762; first compound 0.5 µM) | relative viability (XMD13-2 + AZD7762; first compound 1.581 µM) | relative viability (XMD13-2 + AZD7762; first compound 5 µM) | relative viability (ALW-II-49-7 + Dasatinib; first compound 0.253 µM) |
| --- | --- | --- | --- | --- | --- | --- | --- | --- | --- | --- | --- | --- | --- | --- | --- | --- | --- | --- | --- | --- |
| EPLC-272H | 0.747 | 0.886 | 0.855 | 0.856 | 0.871 | 0.283 | 0.26 | 0.345 | 0.375 | 0.273 | 0.319 | 0.317 | 0.346 | 0.343 | 0.294 | 0.237 | 0.0561 | 0.156 | 0.231 |  |
| H3255 | 1 | 0.75 | 0.817 | 0.575 | 0.764 | 0.436 | 0.431 | 0.322 | 0.348 | 0.309 | 0.314 | 0.322 | 0.28 | 0.295 | 0.949 | 1.09 | 0.829 | 0.847 | 0.855 | 0.234 |
| HARA | 1.31 | 1.11 | 0.671 | 1.17 | 1.17 | 0.351 | 0.148 | 0.22 | 0.161 | 0.239 | 0.265 | 0.249 | 0.261 | 0.254 | 0.301 | 0.557 | 0.263 | 0.376 | 0.37 | 0.272 |
| HCC-15 | 1.12 | 0.994 | 1.11 | 0.981 | 1.05 | 0.667 | 0.692 | 0.684 | 0.664 | 0.729 | 0.722 | 0.704 | 0.712 | 0.68 | 1.35 | 1.15 | 1.17 | 1.22 | 1.24 | 0.614 |
| HCC-78 | 0.464 | 0.551 | 0.349 | 0.553 | 0.516 | 0.475 |  | 0.361 | 0.383 | 0.434 | 0.47 | 0.488 | 0.509 | 0.416 | 0.763 | 0.973 | 0.557 | 0.475 | 0.705 | 0.466 |
| HCC-366 | 1.24 | 0.988 | 0.969 | 1.04 | 1.04 | 0.694 | 0.591 | 0.528 | 0.7 | 0.354 | 0.454 | 0.388 | 0.299 | 0.326 | 0.325 | 0.388 | 0.308 | 0.427 | 0.355 | 0.75 |
| HCC-827 | 1.05 | 1.02 | 1.04 | 0.957 | 1.04 | 0.326 | 0.294 | 0.232 | 0.239 | 0.44 | 0.465 | 0.466 | 0.367 | 0.391 | 0.199 | 0.22 | 0.207 | 0.202 | 0.224 | 0.331 |
| HOP-62 | 1.03 | 0.726 | 0.842 | 1.23 | 0.756 | 0.635 | 0.56 | 0.616 | 0.495 | 0.49 | 0.423 | 0.461 | 0.33 | 0.336 | 0.917 | 0.799 | 0.867 | 0.598 | 0.409 | 0.617 |
| LC-2-ad | 1.25 | 1.11 | 1.1 | 1.01 | 1.08 | 0.481 | 0.501 | 0.7 | 0.387 | 0.455 | 0.488 | 0.435 | 0.506 | 0.526 | 0.996 | 0.94 | 0.896 | 0.928 | 0.826 | 0.412 |
| LCLC-97TM1 | 1.02 | 0.686 | 0.881 | 0.236 | 0.469 | 0.808 | 0.808 | 0.88 | 0.851 | 0.198 | 0.215 | 0.214 | 0.188 | 0.235 | 0.249 | 0.26 | 0.231 |  | 0.254 | 0.944 |
| LCLC-103H | 1.03 | 1.1 | 1.08 | 1.02 | 1.21 | 0.392 | 0.393 | 0.419 | 0.411 | 0.486 | 0.533 | 0.494 | 0.495 | 0.55 | 0.774 | 0.778 | 0.768 | 0.818 | 0.85 | 0.429 |
| LOU-NH91 | 0.501 | 0.451 | 0.538 | 0.444 | 0.556 | 0.544 | 0.521 | 0.504 | 0.414 | 0.484 | 0.526 | 0.517 |  | 0.564 | 0.938 | 0.767 | 0.78 | 0.725 | 0.793 | 0.588 |
| LU99A | 1.2 | 1.06 | 1.12 | 0.992 | 0.718 | 0.62 | 0.576 | 0.498 | 0.75 |  | 0.403 | 0.39 | 0.377 | 0.359 | 0.378 | 0.501 | 0.442 | 0.327 | 0.312 | 0.486 |
| LXF-289 | 1.06 | 1.04 | 1.07 | 0.976 | 1 | 0.213 | 0.24 | 0.187 | 0.183 | 0.529 | 0.682 | 0.625 | 0.709 | 0.674 | 1.14 | 1.25 | 1.2 | 1.29 | 1.17 | 0.286 |
| NCI-H23 | 1.36 | 0.988 | 1.04 | 0.987 | 1.22 | 0.84 | 0.574 | 0.706 | 0.768 | 0.495 | 0.496 | 0.573 | 0.54 | 0.543 | 0.199 | 0.256 | 0.231 | 0.209 | 0.296 | 0.871 |
| NCI-H322M | 1.34 | 1.29 | 1.3 | 1.28 | 1.54 | 0.246 | 0.261 | 0.251 | 0.231 | 0.439 | 0.453 | 0.486 | 0.534 | 0.505 | 0.461 | 0.602 | 0.543 |  | 0.653 | 0.256 |

From the supplement of paper PMC10307832
